Measured values from patent US8815837B2, “Respiratory disease treatment” (Pulmagen Therapeutics (Inflammation) Limited, priority 2008, dated 2014).

Experiments:
[1] = test system: Tobacco Smoke Induced Pulmonary Inflammation; test: Pre-clinical mouse model of COPD inflammation: tobacco smoke induced pulmonary inflammation, BAL cell counts; format: in vivo; conditions: mice, intranasal, BAL 24 h after final TS exposure
Source text: Pre-Clinical Mouse Model of COPD Inflammation—Tobacco Smoke Induced Pulmonary Inflammation
Protocols for the exposure of mice to TS, obtaining bronchoalveolar lavage (BAL), preparation of cytospin slides for differential cell counts are as outlined below.
Exposure of Mice to TS Daily for 4 or 11 Consecutive Days
In this exposure protocol, mice were exposed in groups of 5 in individual clear polycarbonate chambers (27 cm×16 cm×12 cm). The TS from the cigarettes was allowed to enter the exposure chambers at a flow rate of 100 ml/min. In order to minimise any potential problems caused by repeated exposure to a high level of TS (6 cigarettes), the exposure of the mice to TS was increased gradually over the exposure period to a maximum of 6 cigarettes. The exposure schedule used for 4 days was as follows:
The exposure schedule used for 11 days exposure was as follows:
A further group of mice were exposed to air on a daily basis for equivalent lengths of time as controls (no TS exposure).
Bronchoalveolar Lavage (BAL) Analysis
Bronchoalveolar lavage was performed as follows: the trachea was cannulated using a Portex nylon intravenous cannula (pink luer fitting) shortened to approximately 8 mm. Phosphate buffered saline (PBS) was used as the lavage fluid. A volume of 0.4 ml was gently instilled and withdrawn 3 times using a 1 ml syringe and then placed in an Eppendorf tube and kept on ice prior to subsequent determinations.
Lavage fluid was separated from cells by centrifugation and the supernatant decanted and frozen for subsequent analysis. The cell pellet was re-suspended in a known volume of PBS and total cell numbers calculated by counting a stained (Turks stain) aliquot under a microscope using a haemocytometer.
Differential Cell Counts were Performed as Follows:
The residual cell pellet was diluted to approximately 10^5 cells per ml. A volume of 500 μl was placed in the funnel of a cytospin slide and centrifuged for 8 min at 800 rpm. The slide was air dried and stained using ‘Kwik-Diff’ solutions (Shandon) as per the proprietary instructions. When dried and cover-slipped, differential cells were counted using light microscopy. Up to 400 cells were counted by unbiased operator using light microscopy. Cells were differentiated using standard morphometric techniques.
Rodents such as mice and rats are obligate nasal breathers thus oral delivery of test materials (such as therapeutic agents) for inhalation will not produce good lung exposure. As a consequence, delivery of therapeutic agents to the lungs in rodents is generally achieved by intra-nasal, intra-tracheal or inhalation by whole body aerosol exposure in a chamber.
The chamber method utilises large amounts of test material and is generally reserved for inhalation toxicology studies rather than pharmacological efficacy studies. Intra-tracheal administration is a very efficient delivery method as almost all of the test material is delivered to the lungs, but this is quite an invasive technique. For studies in the mouse particularly, it is also quite technically demanding as the diameter of the trachea is quite small. The intranasal route is less invasive than the intra-tracheal route and so is particularly suitable for repeat dosing studies such as the 4-11 day mouse model described below.
The control group of mice received vehicle 1 hr prior to being exposed to air daily for a maximum of 50 minutes per day. BAL was performed 24 h following the final TS exposure. All compounds were dosed as the HCl salt with doses corrected as base.
[…]
Data Management and Statistical Analysis
All results are presented as individual data points for each animal and the mean value was calculated for each group.

rodent diabetes model = conditions: oral administration; cited from earlier work
[2] = cited from earlier work
PPARγ receptor = molecular target: T1, PPARγ receptor (Homo sapiens, UniProt P37231); conditions: page 13 of WO2007100027; cited from earlier work
T1 sequence (P37231 1-505): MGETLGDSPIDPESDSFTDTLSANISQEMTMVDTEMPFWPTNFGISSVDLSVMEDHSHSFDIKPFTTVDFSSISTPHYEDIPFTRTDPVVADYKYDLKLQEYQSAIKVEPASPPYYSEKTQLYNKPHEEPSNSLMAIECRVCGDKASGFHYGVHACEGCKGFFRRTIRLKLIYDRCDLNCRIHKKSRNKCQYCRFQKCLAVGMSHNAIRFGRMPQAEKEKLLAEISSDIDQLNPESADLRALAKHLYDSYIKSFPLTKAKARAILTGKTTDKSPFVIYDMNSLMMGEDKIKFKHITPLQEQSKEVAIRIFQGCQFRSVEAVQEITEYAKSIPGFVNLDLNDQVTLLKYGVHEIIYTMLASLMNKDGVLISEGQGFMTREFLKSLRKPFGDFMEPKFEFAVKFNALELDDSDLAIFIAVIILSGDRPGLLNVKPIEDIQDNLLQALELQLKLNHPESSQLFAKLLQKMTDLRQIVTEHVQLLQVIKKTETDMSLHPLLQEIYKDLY

[3] = 3 μg/kg, pioglitazone experiment, FIG. 1
[4] = 3 μg/kg, pioglitazone experiment, FIG. 2
[5] = 10 μg/kg, rosiglitazone experiment, FIG. 3
[6] = 10 μg/kg, rosiglitazone experiment, FIG. 4
[7] = 1 μg/kg, pioglitazone experiment, FIG. 1
[8] = 1 μg/kg, pioglitazone experiment, FIG. 2
[9] = 3 μg/kg, rosiglitazone experiment, FIG. 3
[10] = 3 μg/kg, rosiglitazone experiment, FIG. 4

## CCc1ccc(CCOc2ccc(CC3SC(=O)NC3=O)cc2)nc1 (racemic) [Racemic pioglitazone, 5-{4-[2-(5-ethylpyridin-2-yl)ethoxy]benzyl}-1,3-thiazolidine-2,4-dione, reference compound]
[1]; [3]
  BAL cell influx (total BAL cells) induced by TS: significantly inhibited
[1]; [4]
  BAL neutrophil numbers induced by TS exposure: significantly inhibited
Rodent diabetes model
  activity of racemate versus individual enantiomers in a rodent diabetes model: no difference in activity
[2]
  interconversion of the two enantiomers in vivo: interconvert in vivo

## CN(CCOc1ccc(CC2SC(=O)NC2=O)cc1)c1ccccn1 (racemic) [Racemic rosiglitazone, 5-(4-{2-[methyl (pyridin-2-yl)amino]ethoxy]benzyl}-1,3-thiazolidine-2,4-dione, reference compound]
[1]; [5]
  BAL cell influx (total BAL cells) induced by TS: significantly inhibited
[1]; [6]
  BAL neutrophil numbers induced by TS exposure: significantly inhibited

## CCc1ccc(CCOc2ccc(C[C@H]3SC(=O)NC3=O)cc2)nc1.Cl [Example 4, (5R)-5-{4-[2-(5-ethylpyridin-2-yl)ethoxy]benzyl}-1,3-thiazolidine-2,4-dione hydrochloride]
[1]; [7]
  BAL cell influx (total BAL cells) induced by TS: significantly inhibited
[1]; [8]
  BAL neutrophil numbers induced by TS exposure: significantly inhibited
[1]; [3]
  BAL cell influx (total BAL cells) induced by TS: significantly inhibited
[1]; [4]
  BAL neutrophil numbers induced by TS exposure: significantly inhibited

## CCc1ccc(CCOc2ccc(C[C@@H]3SC(=O)NC3=O)cc2)nc1.Cl [Example 6, (5S)-5-{4-[2-(5-ethylpyridin-2-yl)ethoxy]benzyl}-1,3-thiazolidine-2,4-dione hydrochloride]
[1]; [7]
  BAL cell influx (total BAL cells) induced by TS: failed to inhibit
[1]; [8]
  BAL neutrophil numbers induced by TS exposure: ineffective
[1]; [3]
  BAL cell influx (total BAL cells) induced by TS: failed to inhibit
[1]; [4]
  BAL neutrophil numbers induced by TS exposure: ineffective

## CN(CCOc1ccc(C[C@H]2SC(=O)NC2=O)cc1)c1ccccn1.Cl [Example 8, (5R)-5-(4-{2-[methyl(pyridin-2-yl)amino]ethoxy}benzyl)-1,3-thiazolidine-2,4-dione hydrochloride]
[1]; [9]
  BAL cell influx (total BAL cells) induced by TS: significantly inhibited
[1]; [10]
  BAL neutrophil numbers induced by TS exposure: significantly inhibited
[1]; [5]
  BAL cell influx (total BAL cells) induced by TS: significantly inhibited
[1]; [6]
  BAL neutrophil numbers induced by TS exposure: significantly inhibited

## CN(CCOc1ccc(C[C@@H]2SC(=O)NC2=O)cc1)c1ccccn1.Cl [Example 9, (5S)-5-(4-{2-[methyl(pyridin-2-yl)amino]ethoxy}benzyl)-1,3-thiazolidine-2,4-dione hydrochloride monohydrate]
[1]; [9]
  BAL cell influx (total BAL cells) induced by TS: failed to inhibit
[1]; [10]
  BAL neutrophil numbers induced by TS exposure: ineffective
[1]; [5]
  BAL cell influx (total BAL cells) induced by TS: failed to inhibit
[1]; [6]
  BAL neutrophil numbers induced by TS exposure: ineffective

## COc1ccc2nc(COc3ccc(CC4SC(=O)NC4=O)cc3)n(C)c2c1 (centres unmarked) [Rivoglitazone]
PPARγ receptor
  receptor binding affinity, 5S versus 5R enantiomer: 5S enantiomer also has higher receptor binding affinity than the 5R enantiomer
